Laboratory results: patent publication US11064658B2, “Method for inducing plants to increase their flavonoid compound content” (Industrial Technology Research Institute, priority 2018, dated 2021)

Experiments:
Assay type in all cases: in vivo
[1] = tested on: Chrysanthemum morifolium; assay: Al ion stimulation alone or combined with ultraviolet irradiation, solid medium culture; total flavonoid content; settings: whole plant, compared to control group
Protocol: 1. Different amounts of AlCl3 were added to the formulation of Table 2 shown above to respectively form MS solid mediums with final concentration of 0 μM (control group) and 350 μM for ready for use. 2. A terminal bud of a tissue culture seedling of Chrysanthemum morifolium (young shoot of Chrysanthemum morifolium) was cut and inserted to a solid medium without addition of the stimulation ion. After the plant had grown roots, the root part of the plant having the root with a length of less than 0.5 cm was inserted to the solid medium prepared above to perform the solid medium culture. 4. On the 41st day of the culture, the plants were irradiated with ultraviolet B for 0, 1, 2 and 4 hours, respectively. The plants were then allowed to recover for 3 hours. After the recovery, the morphological changes of the plants were observed and samples of whole plants (plants stimulated by Al ions alone, plants irradiated with 1 hour of ultraviolet alone, and plants stimulated by Al ions and 1, 2, and 4 hours of ultraviolet irradiation were obtained) were collected. After that, the collected samples were lyophilized. 5. After the lyophilization, extraction was performed on the whole plant. […] Quantitative analysis of total flavonoids was performed on the extracts mentioned above.

[2] = tested on: Chrysanthemum morifolium; assay: Al ion stimulation alone or combined with ultraviolet irradiation, hydroponic culture; flavonoid glycoside contents by HPLC; settings: whole plants, compared to control group
Protocol: 1. MS liquid medium was prepared based on the formulation of Table 1 shown above. 2. Different amounts of AlCl3 solution were added to the MS liquid medium prepared above to respectively form MS liquid mediums with AlCl3 final concentrations of 0 μM (control group) and 250 μM for ready for use. 3. Tissue culture seedlings of Chrysanthemum morifolium (young shoot of Chrysanthemum morifolium) were taken out from solid culture tubes. After that, the solid medium on the roots of the plants were washed with water, and the whole plants were inserted into test tubes containing the MS liquid medium with different AlCl3 final concentration prepared above, and the roots of the plant were immersed in the liquid medium. Finally, the above-ground parts of the plants were covered with sealed bags to protect the cuticula on the surfaces of the plant leaves to prevent rapid evapotranspiration of water. 4. […] The plants were then allowed to recover for 1 hour. After the recovery, the morphological changes of the plants were observed and samples of whole plants were collected. Then, the collected samples were lyophilized. 5. After the lyophilization, extraction was performed on the whole plant of Chrysanthemum morifolium. The extraction method used was water extraction, and the dried plant and deionized water were mixed at a ratio of 1:20 (g/mL) (i.e., 1 g dry weight of plant was added to 20 mL of deionized water) to form a mixture. Using a condensing heating system, the mixture was heated to boiling for 90 minutes to complete the extraction and obtain an extract solution. The plant residue in the extract solution was removed by filtration, and then the extract solution was further lyophilized to obtain an extract. 6. High-performance liquid chromatography was performed on the extract mentioned above to determine the contents of luteolin-7-O-β-D-glycoside and […] which belong to flavonoid compounds.

[3] = tested on: Ixeris chinensis; assay: Al ion stimulation alone or combined with ultraviolet irradiation, hydroponic culture; total flavonoid content of flowers and pedicels; settings: for total flavonoid content: flowers and pedicels, compared to control group
Protocol: 1. MS liquid medium was prepared according to the formulation of Table 1 shown above. 2. Different amounts of AlCl3 solution were added to the MS liquid medium prepared above to respectively form MS liquid mediums with AlCl3 final concentrations of 0 mM (control group) and 1.25 mM for ready for use. 3. […] chinensis plants were sampled from the field. Leaves and pedicels of the above-ground part and root of the under-ground part of the […] chinensis plant were wiped and wash with water and the root were allowed in a form of bare root. After that, the whole plant was inserted into a test tube containing the MS liquid medium with AlCl3 prepared above, and the root of the plant was immersed in the liquid medium. 4. At the 73th hour of the immersion, the plants were irradiated with ultraviolet B for 1 hour. The plants were then allowed to recover for 3 hour. After the recovery, the morphological changes of the plants were observed and samples of flowers and pedicels were collected. Then, the collected samples were lyophilized. 5. The collected flowers and pedicels of the fresh plant were extracted with 30% ethanol and subjected to total flavonoid content analysis.

[4] = tested on: Chrysanthemum morifolium; assay: Al ion stimulation of flowering plants for 96 hours, soil culture; flavonoid contents of flowers; settings: AlCl3 1.25 mM and 2.5 mM, compared to control group
Protocol: 1. AlCl3 solutions with concentrations of 1.25 mM and 2.5 mM were prepared, respectively. 2. The flowering plants of Chrysanthemum morifolium (adult of Chrysanthemum morifolium) cultured by soil culture together with the soil and flower pots where the plants were located, were immersed in the AlCl3 solutions prepared above. 3. After being immersed for 96 hours, the morphological changes of the plants were observed and the samples of flowers were collected and lyophilized. 4. After the lyophilization, extraction was performed on the flowers of Chrysanthemum morifolium. The extraction method used was water extraction, and the dried flowers and deionized water were mixed at a ratio of 1:20 (g/mL) (i.e., 1 g dry weight of flowers was added to 20 mL of deionized water) to form a mixture. Using a condensing heating system, the mixture was heated to boiling for 90 minutes to complete the extraction and obtain an extract solution. The plant residue in the extract solution was removed by filtration, and then the extract solution was further lyophilized to obtain an extract.

[5] = tested on: Chrysanthemum morifolium; assay: Al ion stimulation at different concentrations for 72 hours, hydroponic culture; flavonoid glycoside contents by HPLC; settings: whole plants, AlCl3 100, 150, 200, 250 μM, compared to control group
Protocol: 1. MS liquid medium was prepared based on the formulation of Table 1 shown above. 2. Different amounts of AlCl3 solution were added to the MS liquid medium prepared above to respectively form MS liquid mediums with AlCl3 final concentrations of 0 μM (control group), 100 μM, 150 μM, 200 μM and 250 μM for ready for use. 3. Tissue culture seedlings of Chrysanthemum morifolium (young shoot of Chrysanthemum morifolium) were taken out from solid culture tubes. After that, the solid medium on the root of the plants was washed with water, and the whole plants were inserted into test tubes containing the MS liquid medium with different AlCl3 final concentration prepared above, and the roots of the plants were immersed in the liquid medium. Finally, the above-ground parts of the plants were covered with sealed bags to protect the cuticula on the surfaces of the plant leaves to prevent rapid evapotranspiration of water. 4. After being immersed for 72 hours, the morphological changes of the plants were observed and the samples of whole plants were collected. Then, the collected samples were lyophilized. 5. After the lyophilization, extraction was performed on the whole plant of Chrysanthemum morifolium. […]

[6] = tested on: Chrysanthemum morifolium; assay: Al ion stimulation for different lengths of time, hydroponic culture; flavonoid glycoside contents by HPLC; settings: whole plants, AlCl3 70, 250, 350 μM, 48, 72, 96 hours, compared to control group, had a dose effect
Protocol: 1. MS liquid medium was prepared based on the formulation of Table 1 shown in the following. 2. Different amounts of AlCl3 solution were added to the MS liquid medium prepared above to respectively form MS liquid mediums with AlCl3 final concentrations of 0 μM (control group), 70 μM, 250 μM and 350 μM for ready for use. 3. Tissue culture seedlings of Chrysanthemum morifolium (young shoot of Chrysanthemum morifolium) were taken out from solid culture tubes. After that, the solid medium on the root of the plants was washed with water, and the whole plants were inserted into test tubes containing the MS liquid medium with different AlCl3 final concentration prepared above, and the roots of the plants were immersed in the liquid medium. Finally, the above-ground parts of the plants were covered with sealed bags to protect the cuticula on the surfaces of the plant leaves to prevent rapid evapotranspiration of water. 4. After being immersed for 48, 72 and 96 hours, the morphological changes of the plants were observed and the samples of whole plants were collected. Then, the collected samples were lyophilized. 5. After the lyophilization, extraction was performed on the whole plant of Chrysanthemum morifolium. […]

[7] = tested on: Chrysanthemum morifolium; assay: Cu ion stimulation alone or combined with ultraviolet irradiation, hydroponic culture; flavonoid glycoside contents by HPLC; settings: whole plants, compared to control group
[8] = tested on: Chrysanthemum morifolium; assay: Zn ion stimulation for 40 days, solid medium culture; flavonoid glycoside contents by HPLC; settings: whole plants, Zn ion 15, 30, 45 mM, compared to control group (3 mM)
Protocol: 1. Different amounts of ZnSO4 were added to the formulation of Table 2 shown in the following to respectively form MS solid mediums with different Zn ion final concentration of 3 mM (control group), 15 mM, 30 mM and 45 mM for ready for use. 2. A terminal bud of a tissue culture seedling of Chrysanthemum morifolium (young shoot of Chrysanthemum morifolium) was cut and inserted to the solid medium prepared above (since a rooted plant was not easy to insert into solid medium, the experiment was performed in this way) to perform the solid medium culture. Since Zn is mainly absorbed by the roots of plants, the evaluation only could start after the plant had grown roots. The Zn element could be absorbed and utilized by the plant only after the plant had grown roots. Plants were allowed to absorb zinc during growth and development, thereby causing changes in physiological and compositional components in the plants. 3. After being cultured for 40 days, the morphological changes of the plants were observed and the samples of whole plants were collected. Then, the collected samples were lyophilized. 4. After the lyophilization, extraction was performed on the whole plant of Chrysanthemum morifolium. […]

[9] = AlCl3 250 μM plus ultraviolet B 1 hour at 97th hour, recovery 1 hour
[10] = CuSO4 250 μM plus ultraviolet B 1 hour at 97th hour, recovery 1 hour

[Cl][Al]([Cl])[Cl] [Al ions, AlCl3]
total flavonoid content ([1]; AlCl3 350 μM plus ultraviolet B 1, 2, 4 hours on 41st day, recovery 3 hours): increased
total flavonoid content ([1]; AlCl3 350 μM, Al ions alone): increased
content of apigenin-7-O-β-D-glycoside [2, 9]: about 40 fold
content of luteolin-7-O-β-D-glycoside [2, 9]: about 40 fold
content of apigenin-7-O-β-D-glycoside ([2]; AlCl3 250 μM, Al ions alone): increased
content of luteolin-7-O-β-D-glycoside ([2]; AlCl3 250 μM, Al ions alone): increased
appearance of plants before and after the ultraviolet irradiation, under Al ion stimulation ([3]; AlCl3 1.25 mM, ultraviolet B 1 hour): no significant difference
total flavonoid content ([3]; AlCl3 1.25 mM plus ultraviolet B 1 hour at 73th hour, recovery 3 hour): about 3.5 fold
total flavonoid content ([3]; AlCl3 1.25 mM, Al ions alone): increased
content of apigenin [4]: significantly increased
content of apigenin-7-O-β-D-glycoside [4]: significantly increased
content of luteolin-7-O-β-D-glycoside [4]: significantly increased
content of apigenin-7-O-β-D-glycoside [5]: significantly increased about twofold to threefold
content of luteolin-7-O-β-D-glycoside [5]: significantly increased about twofold to threefold
content of apigenin-7-O-β-D-glycoside [6]: significantly increased
content of luteolin-7-O-β-D-glycoside [6]: significantly increased

O=S(=O)([O-])[O-].[Cu+2] [Cu ions, CuSO4]
content of apigenin-7-O-β-D-glycoside [7, 10]: about 37 fold
content of luteolin-7-O-β-D-glycoside [7, 10]: about 37 fold
content of apigenin-7-O-β-D-glycoside ([7]; CuSO4 250 μM, Cu ions alone): increased
content of luteolin-7-O-β-D-glycoside ([7]; CuSO4 250 μM, Cu ions alone): increased

O=S(=O)([O-])[O-].[Zn+2] [Zn ions, ZnSO4]
content of apigenin-7-O-β-D-glycoside [8]: significantly increased about sevenfold to eightfold
content of luteolin-7-O-β-D-glycoside [8]: significantly increased about sevenfold to eightfold
